In patent publication US20200347136A1, “CONSTRAINED CYCLIC PEPTIDES AS INHIBITORS OF THE CD2:CD58 PROTEIN-PROTEIN INTERACTION FOR TREATMENT OF DISEASES AND AUTOIMMUNE DISORDERS” (Board of Supervisors for the University of Louisiana System, priority 2019, published 2020):
Numbered stars: 1 amine (or outer) side, 2 acyl side, 3 side chain; on linkers, the order of the positions; unused ones are H or OH. Bridge positions count the residues as written; N and C are the ends. Square brackets hold non-standard residues; d marks the D form. Peptide text beside a SMILES is read from it. βAla(3R-(1-naphthyl)) = O=C(C[C@@H](N[*:1])c1cccc2ccccc12)[*:2]; βAla(3S-(1-naphthyl)) = O=C(C[C@H](N[*:1])c1cccc2ccccc12)[*:2]; X1 = O=C(CCc1cccc2c1oc1c(CCN[*:1])cccc12)[*:2]

Key:
MCF-7 cells = conditions: read-out: IC50 MCF-7 (HER2−); antiproliferative activity
Description: (§1) Antiproliferative activity of grafted cyclic peptides. Antiproliferative activity of the designed grafted peptides was evaluated in different HER2-overexpressing cancer cell lines as well as HER2 negative cancer cell lines.
(§2) Table 1. […] Single letter amino acid code was used for peptide sequence. Lower case letters refer to D amino acids and capital letters refer to L amino acids. Chirality of Anapa was indicated with R and S configuration in italics. Antiproliferative activity of peptides in cancer cell lines are given as IC50 in μM. Disulfide bonds between the cysteines are underlined.

A549 cells = conditions: read-out: IC50 A549 (HER2+); antiproliferative activity
Description: as §1, §2

BT-474 cells = conditions: for IC50: read-out: IC50 BT-474 (HER2+), antiproliferative activity
Description: as §1, §2

Calu-3 cells = conditions: read-out: IC50 Calu-3 (HER2+); antiproliferative activity
Description: as §1, §2

[1] = tested on: CD2:CD58 interaction (SRBC expressing CD58 / Jurkat cells expressing CD2); experiment: E-rosetting assay, sheep red blood cells / Jurkat T cells; assay type: cell-based
Description: Peptides were added to AET-treated sheep red blood cells (SRBC) (expressing CD58 protein) first, and Jurkat cells (expressing CD2 protein) labeled with BCECF were added later. Cells with five or more SRBC bound were counted as rosettes. Values are percent inhibition of peptide-treated cells and are expressed as the mean of three experimental values. Error bars represent standard error of the mean (SEM).
The ability of peptides to inhibit cell adhesion was evaluated using E-rosetting assay via interaction between sheep red blood cells (SRBC) expressing CD58 and Jurkat T cells expressing CD2 protein. When these cells are incubated, they adhere to each other. Each Jurkat cell adheres to many sheep red blood cells. Five or more SRBC adhering to a Jurkat cell is counted as positive E-rosetting.

[2] = tested on: collagen-induced arthritis; conditions: cited from earlier work
[3] = molecular target: T1, CD2:CD58 interaction (Jurkat T cells / OVCAR-3 cells) (Homo sapiens, UniProt P19256); experiment: cell adhesion inhibition, Jurkat / OVCAR-3 cells; assay type: cell-based
T1 construct: CD2+ Jurkat T cells and CD58+ OVCAR-3 cells; endogenous in cells; host or cells: OVCAR-3 (CD58) and Jurkat (CD2)
T1 sequence (P19256 29-250): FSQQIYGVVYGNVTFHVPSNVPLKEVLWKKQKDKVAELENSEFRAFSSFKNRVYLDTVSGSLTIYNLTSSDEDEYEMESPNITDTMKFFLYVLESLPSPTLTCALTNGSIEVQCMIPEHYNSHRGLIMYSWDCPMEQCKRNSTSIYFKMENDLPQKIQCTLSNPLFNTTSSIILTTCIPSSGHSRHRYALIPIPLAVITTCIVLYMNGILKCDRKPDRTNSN
Description: (§7) The ability of peptides to inhibit the CD2:CD58 protein-protein interaction was studied by evaluating the adhesion interaction between cells using model systems. […] The model systems we used included Jurkat and ovarian cancer (OVACR-3) cells and Jurkat and human fibroblast-like synoviocyte-rheumatoid arthritis (HFLS-RA) cells. Since OVCAR-3 cells and HFLS-RA cells express CD58, adhesion interactions between CD2 and CD58 can be studied using these model systems. Peptides were incubated with adherent cells that expressed CD58, and Jurkat cells were added to evaluate the adhesion. […] A broad range of concentrations (0.0005 to 200 μM) was used in the first screen and based on the inhibitory activity of the peptides in that concentration range, data points for a dose-response study were chosen. The concentration-response curves for the various peptides were obtained in the range of 0.0005 to 10 μM.
(§8) Cell adhesion was also evaluated in a well-established E-rosetting assay. […] To evaluate the cell adhesion inhibitory activity of peptides from cells associated with autoimmune disease, we used HFLS-RA cells derived from RA patients.

[4] = molecular target: T2, CD2:CD58 interaction (Jurkat T cells / HFLS-RA cells) (Homo sapiens, UniProt P19256); experiment: cell adhesion inhibition, Jurkat / HFLS-RA cells; assay type: cell-based
T2 construct: we used HFLS-RA cells derived from RA patients; endogenous in cells; host or cells: HFLS-RA (CD58) and Jurkat (CD2)
T2 sequence (P19256 29-250): T1 sequence (P19256 29-250)
Description: as §7, §8

CD2:CD58 interaction = molecular target: T3, CD2:CD58 interaction (Homo sapiens, UniProt P19256); experiment: cell adhesion inhibition between T cells (CD2) and epithelial cells (CD58), model systems; assay type: cell-based
T3 construct: Peptides were incubated with adherent cells that expressed CD58; endogenous in cells; host or cells: Jurkat T cells with OVCAR-3 or HFLS-RA cells
T3 sequence (P19256 29-250): T1 sequence (P19256 29-250)
Description: as §7

CD2:CD58 [5] = experiment: Cell adhesion inhibition IC50 (µM) | T cell-HFLS-RA
Description: (§3) Table printed on a drawing sheet, Fig. 5
Head of the field: Cell adhesion inhibition IC50 (µM) | T cell-HFLS-RA
(§4) Table of stable peptides designed based on sunflower trypsin inhibitor (SFTI) and their cell adhesion inhibition activities in a model system. OVCAR-3 and HFLS-RA cells express CD58. Jurkat T cells express CD2 protein. Inhibition of adhesion between Jurkat and OVCAR-3/HFLS-RA cells was evaluated. Cell adhesion inhibition is represented as IC50 value
(§5) First copying reader's note: In the SFTI sequences the stretch from the first C to the second C is underlined on the sheet; the ± error stands inside the IC50 cells.
(§6) Where the first naming reader finds the target: description_of_the_figure: OVCAR-3 and HFLS-RA cells express CD58. Jurkat T cells express CD2 protein. Inhibition of adhesion between Jurkat and OVCAR-3/HFLS-RA cells was evaluated.

CD2:CD58 [6] = experiment: Cell adhesion inhibition IC50 (µM) | T cell-OVCAR-3
Description: as §3
Head of the field: Cell adhesion inhibition IC50 (µM) | T cell-OVCAR-3
as §4, §5, §6

Calu-3 xenograft tumors = experiment: Calu-3 xenograft model of lung cancer in nude mice; assay type: in vivo; conditions: Calu-3 xenograft; SFTI-G5 8 mg/kg intratumoral thrice a week; antibodies 12 then 6 mg/kg once a week
Description: 5×10^6 Calu-3 cells suspended in serum-free medium were subcutaneously inoculated in left flank region of mice to induce lung cancer (Foxn1-nude). Peptide (8 mg/kg) was administered via intratumoral injection three times a week after 10 days, Pertuzumab was injected with a loading dose of 12 mg/kg and then 6 mg/kg as maintenance dose intraperitonially once a week, Trastuzumab and pertuzumab combination was injected at a loading dose of 12 mg/kg and then 6 mg/kg as maintenance dose once a week. […] For comparison, pertuzumab (up triangle, blue) and trastuzumab and pertuzumab combination (down triangle, red) also shown (with standard errors for n=6). […] C) PPI inhibition assessed by PLA on tumor tissue sample. […] Tumor sections were homogenized, and protein was extracted and subjected to Western blot. […] (** p<0.01). Mean±SEM.
HER2 dimerization inhibitors such as pertuzumab and trastuzumab and pertuzumab combinations were also administered as control groups (FIG. 11A). […] During the course of the experiment, the tumor size in the control xenograft group without any treatment continued to increase, reaching a diameter of ˜9 mm in 28 days (FIG. 11B).
To evaluate the phosphorylation of HER2 protein, Western blot analysis was performed on frozen tumor samples.

N=C(N)NCCC[C@@H]1NC(=O)[C@H]2CCCN2C(=O)[C@@H]2CCCN2C(=O)[C@H](CCCNC(=N)N)NC(=O)C[C@H](c2cccc3ccccc23)NC(=O)[C@H](Cc2ccccc2)NC(=O)[C@H](CC(=O)O)NC(=O)[C@H](CC(=O)O)NC(=O)[C@H](Cc2ccccc2)NC(=O)C[C@H](c2cccc3ccccc23)NC1=O [Compound 18, Cyclo(PpR(R-X)FDDF(R-X)R), reference compound] (cyclo(P[dP]R[βAla(3R-(1-naphthyl))]FDDF[βAla(3R-(1-naphthyl))]R))
IC50 (MCF-7 cells): > 50 µM

CC[C@H](C)[C@@H]1NC(=O)[C@H](C)NC(=O)C[C@@H](c2cccc3ccccc23)NC(=O)[C@@H]2CSSC[C@H](NC(=O)C[C@@H](c3cccc4ccccc34)NC(=O)[C@H](C)NC(=O)[C@@H]3CCCN3C(=O)[C@@H]3CCCN3C1=O)C(=O)N[C@@H](C)C(=O)N1CCC[C@H]1C(=O)N[C@@H](CC(=O)O)C(=O)N[C@@H](C)C(=O)N[C@@H](Cc1ccccc1)C(=O)N2 [Control-G, Cyclo(C(S-X)AIPPA(S-X)CAPDAF), reference compound] (cyclo(AFC[βAla(3S-(1-naphthyl))]AIPPA[βAla(3S-(1-naphthyl))]CAPD); disulfide 3-11)
IC50 (A549 cells): > 50 µM | IC50 (BT-474 cells): > 50 µM | IC50 (Calu-3 cells): > 50 µM | IC50 (MCF-7 cells): > 50 µM

CC[C@H](C)[C@@H]1NC(=O)[C@H](CC(=O)O)NC(=O)[C@H](CC(=O)O)NC(=O)[C@@H]2CCCN2C(=O)[C@H]2CCCN2C(=O)[C@H](CC(=O)O)NC(=O)[C@H](Cc2ccc(O)cc2)NC(=O)[C@H]([C@@H](C)CC)NC(=O)[C@H](CO)NC(=O)[C@H](CCCCN)NC1=O [Peptide 6, Cyclo(SIYDpPDDIK)]
IC50 [1]: 0.0094 ± 0.0003 µM | histopathology of paws ([2]; 0.5 mg/kg): clear joint space with normal cartilage interface | anti-CII antibodies in sera ([2]; 0.5 and 1 mg/kg i.v.): dose-dependent reduction | acute clinical signs of illness / direct toxicity ([2]; DBA/1 mice, during dosing): minimal, if any, direct toxicity

C[C@@H]1NC(=O)[C@@H]2CSSC[C@H](NC(=O)[C@H](CC(=O)O)NC(=O)[C@H](CC(=O)O)NC(=O)CNC(=O)[C@H](CC(=O)O)NC(=O)[C@H](Cc3ccc(O)cc3)NC1=O)C(=O)N[C@@H](CCCCN)C(=O)N[C@@H](CO)C(=O)N[C@@H](C)C(=O)NCCc1cccc3c1Oc1c(cccc1-3)CCC(=O)N[C@@H](CO)C(=O)N2 [SFTI-DBF] (cyclo(AYDGDDCKSA[X1]SC); disulfide 7-13)
IC50 [3]: 0.00061 µM | IC50 [4]: 0.003 µM

CC[C@H](C)[C@@H]1NC(=O)[C@H](CO)NC(=O)[C@H](CC(=O)O)NC(=O)[C@H](Cc2ccccc2)NC(=O)[C@@H]2CSSC[C@H](NC(=O)[C@H](Cc3ccccc3)NC(=O)[C@H](CC(=O)O)NC1=O)C(=O)N[C@H](c1cccc3ccccc13)CC(=O)N[C@@H](CCCNC(=N)N)C(=O)N[C@@H](CC(=O)O)C(=O)N[C@@H](CCCNC(=N)N)C(=O)N[C@H](c1cccc3ccccc13)CC(=O)N2 [SFTI-G1, Cyclo(C(S-X)RDR(S-X)CFDSIDF)] (cyclo(C[βAla(3S-(1-naphthyl))]RDR[βAla(3S-(1-naphthyl))]CFDSIDF); disulfide 1-7)
IC50 (BT-474 cells): 4.16 ± 0.179 µM | IC50 (MCF-7 cells): > 50 µM

N=C(N)NCCC[C@@H]1NC(=O)[C@H]2CCCN2C(=O)[C@@H]2CCCN2C(=O)[C@H](CCCNC(=N)N)NC(=O)C[C@H](c2cccc3ccccc23)NC(=O)[C@@H]2CSSC[C@H](NC(=O)C[C@H](c3cccc4ccccc34)NC1=O)C(=O)N[C@@H](Cc1ccccc1)C(=O)N[C@@H](Cc1ccccc1)C(=O)N2 [SFTI-G2, Cyclo(C(R-X)RPpR(R-X)CFF)] (cyclo(C[βAla(3R-(1-naphthyl))]RP[dP]R[βAla(3R-(1-naphthyl))]CFF); disulfide 1-8)
IC50 (BT-474 cells): 5.23 ± 1.38 µM | IC50 (MCF-7 cells): > 50 µM

N=C(N)NCCC[C@@H]1NC(=O)[C@@H]2CCCN2C(=O)[C@@H]2CCCN2C(=O)[C@H](CCCNC(=N)N)NC(=O)C[C@H](c2cccc3ccccc23)NC(=O)[C@@H]2CSSC[C@H](NC(=O)C[C@H](c3cccc4ccccc34)NC1=O)C(=O)N[C@@H](Cc1ccccc1)C(=O)N2 [SFTI-G3, Cyclo(C(R-X)RPPR(R-X)CF)] (cyclo(C[βAla(3R-(1-naphthyl))]RPPR[βAla(3R-(1-naphthyl))]CF); disulfide 1-8)
IC50 (BT-474 cells): 3.65 ± 0.41 µM | IC50 (MCF-7 cells): > 50 µM

CC[C@H](C)[C@@H]1NC(=O)[C@H](CO)NC(=O)[C@H](CC(=O)O)NC(=O)[C@H](Cc2ccccc2)NC(=O)[C@@H]2CSSC[C@H](NC(=O)[C@H](Cc3ccccc3)NC(=O)[C@H](CC(=O)O)NC(=O)[C@@H]3CCCN3C(=O)[C@@H]3CCCN3C1=O)C(=O)N[C@H](c1cccc3ccccc13)CC(=O)N[C@@H](CCCNC(=N)N)C(=O)N1CCC[C@H]1C(=O)NCC(=O)N[C@@H](CCCNC(=N)N)C(=O)N[C@H](c1cccc3ccccc13)CC(=O)N2 [SFTI-G4] (cyclo(C[βAla(3S-(1-naphthyl))]RPGR[βAla(3S-(1-naphthyl))]CFDSIPPDF); disulfide 1-8)
IC50 (BT-474 cells): 17.2 ± 1.03 µM | IC50 (MCF-7 cells): > 30 µM

CC[C@H](C)[C@@H]1NC(=O)[C@H](CCCNC(=N)N)NC(=O)C[C@H](c2cccc3ccccc23)NC(=O)[C@@H]2CSSC[C@H](NC(=O)C[C@H](c3cccc4ccccc34)NC(=O)[C@H](CCCNC(=N)N)NC(=O)[C@@H]3CCCN3C(=O)[C@@H]3CCCN3C1=O)C(=O)N[C@@H](Cc1ccccc1)C(=O)N1CCC[C@H]1C(=O)N[C@@H](CC(=O)O)C(=O)N[C@@H](CC(=O)O)C(=O)N[C@@H](Cc1ccccc1)C(=O)N2 [SFTI-G6, Cyclo(C(R-X)RIPPR(R-X)CFPDDF)]
change of antiproliferative activity on altering Anapa chirality (S to R) (BT-474 cells; SFTI-G6 versus SFTI-G5): tenfold decrease | IC50 (BT-474 cells): 2.94 ± 1.06 µM | IC50 (MCF-7 cells): > 50 µM

C[C@@H]1NC(=O)[C@@H]2CSSC[C@H](NC(=O)[C@H](CC(=O)O)NC(=O)[C@H](CC(=O)O)NC(=O)CNC(=O)[C@H](CC(=O)O)NC(=O)[C@H](Cc3ccc(O)cc3)NC1=O)C(=O)N[C@@H](CCCCN)C(=O)N[C@@H](CO)C(=O)N[C@@H](C)C(=O)N1CCC[C@H]1C(=O)N1CCC[C@H]1C(=O)N[C@@H](CO)C(=O)N2 [SFTI-a1] (cyclo(APPSCAYDGDDCKS); disulfide 5-12)
IC50 (CD2:CD58 interaction): 0.022 µM | IC50 (CD2:CD58 [5]): 0.0388 ± 0.0102 µM

C[C@@H]1NC(=O)[C@H](CCCCN)NC(=O)[C@@H]2CSSC[C@H](NC(=O)[C@H](CO)NC(=O)[C@@H]3CCCN3C(=O)[C@@H]3CCCN3C(=O)[C@H](C)NC(=O)[C@H](CO)NC1=O)C(=O)N[C@@H](Cc1ccc(O)cc1)C(=O)N[C@@H](CC(=O)O)C(=O)NCC(=O)N[C@@H](CC(=O)O)C(=O)N[C@@H](CC(=O)O)C(=O)N2 [SFTI-a] (cyclo(APPSCYDGDDCKAS); disulfide 5-11)
IC50 (CD2:CD58 [6]): 0.043 ± 0.025 µM

Cyclo(CTKSIPPICFPDGR) (cyclic) [SFTI-wt (control)]
IC50 (CD2:CD58 [6]): > 50 µM | IC50 (CD2:CD58 [5]): > 50 µM

pertuzumab: antibody known to bind HER2 ECD domain II and inhibit dimerization of EGFRs [reference compound]
tumor growth (Calu-3 xenograft tumors): significantly reduced tumor growth progression
